Read-outs that look alike come from different tables or passages of the source.

The test system of assay [1] is PBMC from T. gondii-seropositive HLA-A03 individuals. Briefly: IFN-γ ELISpot assay with human PBMC. In kind it is cell-based. Conditions: for IFN-γ-secreting spot formation: PBMC from Toxoplasma seropositive HLA-A03 individuals, compared to an irrelevant HLA-A*1101-restricted peptide. The protocol: To determine which of these peptides would be recognized in the context of Toxoplasma infection, peripheral blood mononuclear cells (PBMC) from T. gondii-seropositive HLA-A03 individuals were tested for response to these peptides in pools or individually by using an IFN-γ ELISpot assay. Candidate peptides were considered immunogenic if they induced IFN-γ-secreting spot formation that was significant compared to an irrelevant HLA-A*1101-restricted peptide.
The epitopes were linked together with N/K alanines or GPGPG (SEQ ID NO: 23) as linker, named as LO and AZ, respectively (FIG. 3A-B). […] Immunogenicity of the two proteins compared to the pool of the 5 individual A11-restricted CD8^+ T cell epitope peptides was tested in vitro.
PBMC were obtained from individuals seropositive to T. gondii, and their HLA haplotype was determined.

Assay [2] deals with T1, TLR5 (Homo sapiens, UniProt O60602).
T1 construct: expressed in transfected cells; host or cells: HEK 293 (stably co-transfected with TLR5 and NF-kB-driven SEAP reporter)
Format: cell-based. Particulars: for TLR5 activity (SEAP expression): 0.01-1000 ng/ml, 24 hours.

Assay [3] can be described thus: Immune response to Tox-All in HLA transgenic mice. Details: species or system HLA A2 and HLA A11 mice. Conditions: mouse, in vivo. From the text: The schematic diagrams of SAPN A11 (SEQ ID NO:27) in FIG. 17A 12e is similar to the schematic diagram of the more complex SAPN Tox-All (FIG. 17B). (FIG. 12f). […] Tox-All contains CD8 T cell eliciting epitopes by binding to HLA All, A2, and B7, PADRE a universal CD4 T cell eliciting epitope, protein domains that can elicit antibody (data not shown). Tox-All has the same scaffold flagellin that is shown for SAPN A11. […] Additional CD8 peptides that bind to other HLA molecules to broaden population coverage and CD4 peptides can be added in this complex SAPN. Additional proteins that elicit B cells can also be included in the SAPN. This allows us to tailor an immune response for each component of the immune system we wish to stimulate. The methods and approaches are those described for the A11 SAPN.

T1 sequence (O60602 21-858): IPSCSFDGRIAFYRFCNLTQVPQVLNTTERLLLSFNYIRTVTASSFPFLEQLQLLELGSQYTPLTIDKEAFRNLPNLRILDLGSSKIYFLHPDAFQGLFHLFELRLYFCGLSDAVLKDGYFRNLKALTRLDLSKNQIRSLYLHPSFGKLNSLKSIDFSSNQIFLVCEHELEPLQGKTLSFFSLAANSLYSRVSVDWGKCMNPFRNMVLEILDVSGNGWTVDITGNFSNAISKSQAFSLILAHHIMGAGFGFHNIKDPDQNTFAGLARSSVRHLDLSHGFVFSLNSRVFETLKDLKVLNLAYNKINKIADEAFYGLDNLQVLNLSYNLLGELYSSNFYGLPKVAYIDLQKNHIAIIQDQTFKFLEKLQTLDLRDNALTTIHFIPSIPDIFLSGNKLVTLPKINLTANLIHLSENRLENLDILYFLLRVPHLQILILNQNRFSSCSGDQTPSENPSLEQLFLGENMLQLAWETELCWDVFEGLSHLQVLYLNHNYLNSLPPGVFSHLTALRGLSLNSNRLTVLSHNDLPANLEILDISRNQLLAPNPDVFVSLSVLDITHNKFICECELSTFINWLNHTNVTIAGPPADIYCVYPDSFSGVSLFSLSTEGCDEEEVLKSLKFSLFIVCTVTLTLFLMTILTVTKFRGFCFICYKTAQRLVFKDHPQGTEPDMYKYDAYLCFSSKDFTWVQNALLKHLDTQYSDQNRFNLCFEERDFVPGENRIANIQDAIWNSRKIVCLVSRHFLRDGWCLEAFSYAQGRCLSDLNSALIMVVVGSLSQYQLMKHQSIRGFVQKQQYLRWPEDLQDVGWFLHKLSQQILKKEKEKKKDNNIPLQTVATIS

In the case of “Concanavalin A [Con A, reference compound]”, the “IFN-γ ELISpot response, seropositive versus seronegative donors” value in assay [1] (PBMC of 3 seropositive and 3 seronegative HLA-A03 individuals) was “response of PBMC from both seronegative and seropositive donors”. For the molecule SSAYVFSVK [SRS52A250-258], in assay [1], the IFN-γ-secreting spot formation result is listed as “stimulated significant response”.

With AVVSLLRLLK [GRA589-98], the IFN-γ-secreting spot formation result in assay [1] is “stimulated significant response”. Take STFWPCLLR [SAG2C13-21]: in assay [1], the IFN-γ-secreting spot formation entry is “stimulated significant response”.

B1: Tox-All: SAPN with HLA A11, A2 and B7 CD8 epitopes, PADRE, antibody-eliciting domains and flagellin (protein)
chain: MGDDHHHHHHHHHHWFMGVLVNSLQDITMGSLFFVQDFMIVSISLVQDGLAAAVVAVQDLPQFATAATRDSPASGRYIQQMLDQRCQEIAAELCQSGLRKMCVPSSRIVARNAVGITHQNTLQWRCFDTASLLESNQENNGVNCVDDCGHTIPCPGGVHRQNSNHATRHEILSKLVEEGVQRFCSPYQASANKYCNDKFPGTIARRSKGFGNNVEVAWRCYEKASLLYSVYAECASNCGTTWYCPGGRRGTSTELDKRHYTEEEGIRQAIGSVDSPCSEVEVCLPKDENPPLCLDESGQISRGSWEEWNARWDEWENDWNDWREDWQAWRDDWARWRATWMGGRLLSRLERLERRNEELRRLLQLIRHENRMVLQFVRALSMQNAELERRLEELARGMAQVINTNSLSLLTQNNLNRSQSALGTAIERLSSGLRINSARDDAAGQAIANRFTANIRGLTQASRNANDGISIAQTTEGALNEINNNLQRVRELAVQSANSTNSQSDLDSIQAEITQRLNEIDRVSGQTQFNGVRVLAQDNTLTIQVGANDGETIDIDLRQINSQTLGLDQLNVQQEYESDDAVVSLLRLLKNAMLTAFFLRNAAAKSFKDILPKKAAASSAYVFSVKKAAAKFVAAWTLKAAAKSTFWPCLLRDSDSDTENPLQRIDAALAQVDALRSDLGAVQNRFNSAITNLGNTVNNLSEARSRIEDSDYATEVSNMSRAQILQQAGTSVLAQANQVPQNVLSLLR
modifications: (1)..(14) optionally absent
With B1, in assay [2] (data not shown), the TLR5 stimulation entry is “stimulates TLR5”. In addition, the immune response result in assay [3] is reported as “stimulates an immune response”.

B2: CD8-SAPN: self-assembling protein nanoparticle with five CD8+ epitopes and PADRE inserted into flagellin (protein)
chain: MGDKHHHHHHHHHHKDGSDKGSWEEWNARWDEWENDWNDWREDWQAWRDDWARWRATWMGGRLLSRLERLERRNEELRRLLQLIRHENRMVLQFVRALSMQNAELERRLEELARGMAQVINTNSLSLLTQNNLNRSQSALGTAIERLSSGLRINSARDDAAGQAIANRFTANIRGLTQASRNANDGISIAQTTEGALNEINNNLQRVRELAVQSANSTNSQSDLDSIQAEITQRLNEIDRVSGQTQFNGVRVLAQDNTLTIQVGANDGETIDIDLRQINSQTLGLDQLNVQQEYESDDAVVSLLRLLKNAMLTAFFLRNAAAKSFKDILPKKAAASSAYVFSVKKAAAKFVAAWTLKAAAKSTFWPCLLRDSDSDTENPLQRIDAALAQVDALRSDLGAVQNRFNSAITNLGNTVNNLSEARSRIEDSDYATEVSNMSRAQILQQAGTSVLAQANQVPQNVLSLLR
modifications: (1)..(14) optionally absent
For B2, the “TLR5 activity (SEAP expression)” value in assay [2] is “significantly enhanced”; in assay [2] (listed as SAPN) it was “good stimulation”.
